Calls of active or inactive are those of the source. The calls are words filed in the database; no cut-off is given here.

The source of these data is ChEMBL document CHEMBL5038616, “Synthesis and biological evaluation of N, N-dialkylcarboxy coumarin-NO donor conjugates as potential anticancer agents” (Bioorg Med Chem Lett, 2021).

Series [1] has as its system MDA-MB-231. The series is described as follows: Induction of apoptosis in human MDA-MB-231 cells assessed as early apoptotic cells at 50 nM by annexin V-FITC and PI staining based flow cytometry method (reference value: 1.92 %). Format: functional.
For another series, the system named is 4T1. Nature of the series: Antiproliferative activity against mouse 4T1 cells assessed as inhibition of cell proliferation by MTT assay. Type of series: functional, cell-based.
A short description of series [2]: Cytotoxicity against human MCF-10A cells assessed as inhibition of cell proliferation by MTT assay. Type of series: toxicity, cell-based.
Series [3] has as its system MDA-MB-231. Nature of the series: Induction of apoptosis in human MDA-MB-231 cells assessed as late apoptotic cells at 25 nM by annexin V-FITC and PI staining based flow cytometry method (reference value: 2.02 %). Format: functional.
Series [4] deals with MDA-MB-231. Nature of the series: Induction of apoptosis in human MDA-MB-231 cells assessed as necrotic cells at 10 nM by annexin V-FITC and PI staining based flow cytometry method(reference value: 2.88 %). Type of series: functional.
The test system of series [5] is MDA-MB-231. The series is described as follows: Antitumor activity against human MDA-MB-231 cells xenografted in NOD-SCID mouse assessed as reduction in tumor mass at 20 mg/kg, ip measured for every 2 to 3 days. Type of series: functional. Also on record: scale not given: the % may be the effect or the level left. The conditions noted are these: time 2-3 day.
Series [6] relates to MDA-MB-231. Nature of the series: Induction of apoptosis in human MDA-MB-231 cells assessed as late apoptotic cells at 10 nM by annexin V-FITC and PI staining based flow cytometry method (reference value: 2.02 %). Type of series: functional.
Series [7] relates to MDA-MB-231. Nature of the series: Inhibition of colony formation in human MDA-MB-231 cells assessed as reduction in colony formation at 1 to 3 nM relative to control. The conditions noted are these: dose 1-3 nM. Type of series: functional, cell-based.
The subject of series [8] is MDA-MB-231. The series is described as follows: Cell cycle arrest in human MDA-MB-231 cells assessed as accumulation of cells at G0/G1 phase at 20 nM by PI staining based flow cytometry method. Format: functional.
Series [9] has as its system MDA-MB-231. Nature of the series: Induction of apoptosis in human MDA-MB-231 cells assessed as viable cells at 25 nM by annexin V-FITC and PI staining based flow cytometry method (reference value: 93.2 %). Type of series: functional. The conditions noted are these: read-out: Activity.
Series [10] deals with MDA-MB-231. The series is described as follows: Induction of apoptosis in human MDA-MB-231 cells assessed as early apoptotic cells at 10 nM by annexin V-FITC and PI staining based flow cytometry method (reference value: 1.92 %). Type of series: functional.
The subject of series [11] is MDA-MB-231. Nature of the series: Induction of apoptosis in human MDA-MB-231 cells assessed as early apoptotic cells at 25 nM by annexin V-FITC and PI staining based flow cytometry method (reference value: 1.92 %). Type of series: functional.
A short description of series [12]: Toxicity in […] mouse xenografted with human MDA-MB-231 cells assessed as body weight loss at 20 mg/kg, ip dosed once daily for 14 days relative to control. The note with it: in vivo, 336 h, time 14 day. Format: organism-based.
The nature of series [13]: Cytotoxicity against human HDFa cells assessed as inhibition of cell proliferation by MTT assay. Type of series: toxicity, cell-based.
Series [14] has as its system MDA-MB-231. Nature of the series: Induction of apoptosis in human MDA-MB-231 cells assessed as necrotic cells at 50 nM by annexin V-FITC and PI staining based flow cytometry analysis (reference value: 2.88 %). Type of series: functional.
The test system of the next series is WiDr. Nature of the series: Antiproliferative activity against human WiDr cells assessed as inhibition of cell proliferation by MTT assay. Format: functional, cell-based.
The subject of series [15] is MDA-MB-231. Nature of the series: Antitumor activity against human MDA-MB-231 cells xenografted in NOD-SCID mouse assessed as reduction in tumor volume at 20 mg/kg, ip measured for every 2 to 3 days. Type of series: functional. More on the design: scale not given: the % may be the effect or the level left. The conditions noted are these: time 2-3 day.
Series [16] deals with MDA-MB-231. Nature of the series: Induction of NO production in human MDA-MB-231 cells assessed as nitrite level at 100 uM by Griess reagent based assay. Format: functional, cell-based.
Series [17] has as its system MDA-MB-231. The series is described as follows: Induction of apoptosis in human MDA-MB-231 cells assessed as viable cells at 10 nM by annexin V-FITC and PI staining based flow cytometry method (reference value: 93.2 %). Type of series: functional. The conditions noted are these: read-out: Activity.
The subject of series [18] is MDA-MB-231. Nature of the series: Induction of NO production in human MDA-MB-231 cells assessed as increase in NO fluorescence at 50 nM treated with DAF-DM diacetate for 30 mins and measured after 2 hrs incubation by confocal microscopic analysis. Type of series: functional, cell-based.
Series [19] relates to MDA-MB-231. Nature of the series: Induction of apoptosis in human MDA-MB-231 cells assessed as late apoptotic cells at 50 nM by annexin V-FITC and PI staining based flow cytometry method (reference value: 2.02 %). Type of series: functional.
Series [20] deals with MDA-MB-231. Nature of the series: Induction of apoptosis in human MDA-MB-231 cells assessed as necrotic cells at 25 nM by annexin V-FITC and PI staining based flow cytometry method (reference value: 2.88 %). Type of series: functional.
The test system of series [21] is MDA-MB-231. Nature of the series: Induction of apoptosis in human MDA-MB-231 cells assessed as viable cells at 50 nM by annexin V-FITC and PI staining based flow cytometry method (reference value: 93.2 %). Type of series: functional. The conditions noted are these: read-out: Activity.
The subject of series [22] is MDA-MB-231. Nature of the series: Antiproliferative activity against human MDA-MB-231 cells assessed as inhibition of cell proliferation by MTT assay. Type of series: functional, cell-based.

As to `O=C(OCCOc1no[n+]([O-])c1S(=O)(=O)c1ccccc1)c1cc2ccc(N(Cc3ccccc3)Cc3ccccc3)cc2oc1=O`, the Activity in the series on MDA-MB-231 [1] was 4.8%; with MDA-MB-231 [3] it was 19.4%; in the series on MDA-MB-231 [4] it was 1.36%; with MDA-MB-231 [5] it was 35%; in the series on MDA-MB-231 [6] it was 5.7%; with MDA-MB-231 [7], “Dose-Dependent Effect”. Moreover, the Activity is on record as 2.04% with MDA-MB-231 [10]; 3.04% with MDA-MB-231 [11]; “Non-Toxic” in [12]; 1.47% in the series with MDA-MB-231 [14]; 48% in the series with MDA-MB-231 [15]; 32.9% in the series on MDA-MB-231 [19]. In the series on MDA-MB-231 [20], the Activity was found to be 1.65%. In addition, the concentration for half-maximal inhibition (IC50) in the series with 4T1 is 0.13 µM; in series [2] it was 34 µM; in series [13], 1.48 µM; in the series with WiDr it was 0.03 µM; with MDA-MB-231 [16] it was “Active”; with MDA-MB-231 [22], 0.02 µM. The result in the series with MDA-MB-231 [8] and with MDA-MB-231 [18] was Active. Besides, the viability at 0.025 µM in the series on MDA-MB-231 [9] was determined as 75.9%. Also, in the series on MDA-MB-231 [17], the viability at 0.01 µM was found to be 90.9%. In addition, the viability at 0.05 µM with MDA-MB-231 [21] was determined as 60.8%.
For the molecule `CCN(CC)c1ccc2cc(C(=O)OCCO)c(=O)oc2c1`, the IC50 (with 4T1; in [2]; in the series on WiDr; with MDA-MB-231 [22]) was over 100 µM each time.
With `O=C(OCCO)c1cc2ccc(N(Cc3ccccc3)Cc3ccccc3)cc2oc1=O`, the IC50 (in the series with 4T1; in [2]; with WiDr; with MDA-MB-231 [22]) was over 100 µM throughout.
For `O=C(c1cc2ccc(N(Cc3ccccc3)Cc3ccccc3)cc2oc1=O)N1CCN(CCOc2no[n+]([O-])c2S(=O)(=O)c2ccccc2)CC1`, the IC50 stood at 0.96 µM with 4T1; 8.6 µM in [2]; 5.31 µM in series [13]; 10 µM in the series with WiDr; 0.46 µM in the series on MDA-MB-231 [22]. Besides, in the series with MDA-MB-231 [16], the result was inactive. For the same molecule, in the series with MDA-MB-231 [18], the outcome was Active.
`CCN(CC)c1ccc2cc(C(=O)OCCOc3no[n+]([O-])c3S(=O)(=O)c3ccccc3)c(=O)oc2c1`: the IC50 in the series on 4T1 amounted to 1.3 µM; in [13], 1.48 µM; in the series on WiDr, 2.2 µM; in the series on MDA-MB-231 [22] it was 3.6 µM. Also, the outcome in the series on MDA-MB-231 [16] and in the series on MDA-MB-231 [18] was Active.
`O=C(O)c1cc2ccc(N(Cc3ccccc3)Cc3ccccc3)cc2oc1=O`: the IC50 (with 4T1; in series [2]; in the series with WiDr; in the series on MDA-MB-231 [22]) was over 100 µM throughout.
